For one substance, tumor volumes results are on record in US11739350B2 (priority 2018, dated 2023).

The test system of this assay is HPAFII tumours. Further details: species or system SCID mice. The note with it: mouse, in vivo, ip.

Turning to GSK126, the tumor volumes is listed as 1609.3 mm^3.
